Test [1] addresses T1, glyphosate-tolerant petunia EPSP synthase (alanine for glycine at position 101) (Petunia hybrida, UniProt P11043, G173A).
T1 construct: made in house; host or cells: E. coli (overproducing), extract
Put plainly: EPSP synthase inhibition, petunia enzyme carrying the alanine for glycine substitution. The format is biochemical. The source says:
The EPSP synthase in the extracts was further characterized by titrating the resistance to glyphosate.

Test [2] addresses T2, mutant maize pre-EPSP synthase (alanine for second glycine) (Zea mays, UniProt A0A1D6NVZ6, G163A).
T2 construct: full-length cDNA pre-enzyme with chloroplast transit peptide, T7 in vitro transcription, rabbit reticulocyte lysate translation
The experiment in a line: EPSP synthase activity of in vitro translation product of pMON9960. The class given is biochemical. The procedure:
The linearized plasmid DNA was transcribed in vitro with T7 polymerase essentially as described by Krieg et al. 1984. The standard reaction buffer contained 40 mM Tris-HCl (pH 7.9), 6 mM MgCl2, 10 mM dithiothreitol, 2 mM spermidine, 80 U RNAsin ribuonuclease inhibitor, 0.5 mM each of ATP, GTP, CTP and UTP, in a final reaction volume of 100 μl. The final RNA pellet was resuspended in 20 μl of sterile water and stored at -80° C. A standard translation reaction contained 100 μl of nuclease-treated rabbit reticulocyte lysate, 5.7 μl of a 19-amino acid mixture (minus methionine at 1 mM each, 5.7 μl of RNA (total RNA transcripts derived from 0.63 μg of plasmid DNA), 16 μl RNAsin (20U/μl) ribonuclease inhibitor, and 58.3 μl of [^35 S] methionine (14-15 mCi/ml). The in vitro translation products were stored frozen at -80 ° C.
The products of the in vitro translation were then assayed for EPSP synthase activity as described herein.

The test system of test [3] is control petunia leaf disks (pMON505). The experiment in a line: Callus growth of petunia leaf disks on glyphosate media, control vector pMON505. The format is cell-based. The protocol:
Leaf disks with diameters of 6 mm (1/4 inch) were taken from surface-sterilized petunia leaves. They were cultivated on MS104 agar medium for 2 days to promote partial cell wall formation at the wound surfaces. They were then submerged in a culture of A. tumefaciens cells containing both pMON546 and GV3111-SE which had been grown overnight in Luria broth at 28° C., and shaken gently. The cells were removed from the bacterial suspension, blotted dry, and incubated upside down on filter paper placed over "nurse" cultures of tobacco cells, as described in Horsch (1980). After 2 or 3 days, the disks were transferred to petri dishes containing MS media with 500 μg/ml carbenicillin and 0., 0.1, 0.25, or 0.5 mM glyphosate (sodium salt), with no nurse cultures.
Control tissue was created using A. tumefaciens cells containing the helper plasmid pGV3111-SE and a different plant transformation vector, pMON505, which contained a T-DNA region with a NOS/NPTII/NOS kanamycin resistance gene and a NOS selectable marker gene identical to pMON546, but without the CaMV35S/EPSP synthase gene.
Within 10 days after transfer to the media containing glyphosate, actively growing callus tissue appeared on the periphery of all disks on the control plate containing no glyphosate. […] This confirms that the CaMV35S/EPSP synthase gene conferred glyphosate resistance upon the transformed cells.

Test [4] concerns petunia plants transformed with chimeric EPSP synthase gene (pMON546). Put plainly: Plant response to glyphosate spraying, transformed plants. The class given is in vivo. The conditions noted are these: 0.8 #/acre acid equivalent, isopropylamine salt sprayed. The protocol:
Four individual representative transgenic seedlings were selected, grown and tested in the testing procedure described below, along with four individual non-transformed (wild-type) petunia seedlings.
The plants were grown in a growth medium in a growth chamber at 26° C. with 12 hours of light per day. The plants were fertilized weekly with a soluble fertilizer and watered as needed. The plants were sprayed at a uniform and reproducible delivery rate of herbicide by use of an automated track sprayer. The glyphosate solution used was measured as pounds of glyphosate acid equivalents per acre, mixed as the glyphosate isopropylamine salt, with an ionic surfactant.
Four individual wild-type (non-transformed) petunia plants were selected for use as control plants. Four individual transformed plants containing the pMON546 vector were selected by kanamycin resistance as described in Horsch et al. (1985).
The control plants and the transformed plants were sprayed with the isopropylamine salt of glyphosate at the application level listed in Table 2 below; the experimental results obtained are also summarized in Table 2.

Test [5] relates to Brassica napus calli transformed with pMON600. The experiment in a line: Growth of pMON600-transformed calli on glyphosate. The format is cell-based. The note with it: 0.5 mM glyphosate, three gentamicin resistant calli.
For a further test, the system named is wild type callus. The experiment in a line: Growth of wild type callus on glyphosate. The class given is cell-based, Brassica napus. The note with it: 0.5 mM glyphosate.
For test [6], the system named is MP4 cells (Mitchell diploid petunia). Put plainly: MP4 suspension culture in MS media containing glyphosate. The class given is cell-based. The conditions noted are these: 0.5 mM glyphosate (sodium salt) in MS media, estimated; read-out: cells which survived, share of the starting population. The procedure: The starting cell line, designated as the MP4 line, was derived from a Mitchell diploid petunia (see e.g., Ausubel 1980). The MP4 cells were suspended in Murashige and Skoog (MS) culture media, (GIBCO, Grand Island, N.Y.) All transfers involved dispensing 10 ml of suspension cultures into 50 ml of fresh media. Cultivation periods until the next transfer ranged from 10 to 14 days, and were based on visual indications that the culture was approaching saturation.
Approximately 10 ml of saturated suspension culture (containing about 5×10^6 cells) were transferred into 50 ml of MS media containing 0.5 mM glyphosate. The sodium salt of glyphosate was used throughout the experiments described herein. The large majority of cells were unable to reproduce in the presence of the glyphosate. The cells which survived (estimated to be less than 1% of the starting population) were cultured in 0.5 mM glyphosate and transferred to fresh media containing glyphosate every 10 to 14 days.

The subject of a further test is E coli 11303 SM-1. Put plainly: Growth of mutant E. coli in medium containing glyphosate. The format is cell-based. The note with it: 10 mM or higher glyphosate in the growth medium. The procedure:
Cells of E. coli ATCC 11303 were transferred to medium A and incubated at 37° C.
This mutant bacterium was designated E coli 11303 SM-1. The AroA gene encoding EPSP synthase from this mutant bacterium was isolated as follows.

The source of these data is US5145783A, “Glyphosate-tolerant 5-endolpyruvyl-3-phosphoshikimate synthase” (Monsanto Company, priority 1990, dated 1992).

As usually defined, the IC50 is the concentration that gives 50% inhibition. Low readings indicate higher potency, high ones lower potency. As a reminder, the inhibition is the percentage by which the read-out fell short of the control.

Entries after “also recorded” stand apart in the source; their conditions may differ.

T2 sequence (A0A1D6NVZ6 entry or part of it G163A): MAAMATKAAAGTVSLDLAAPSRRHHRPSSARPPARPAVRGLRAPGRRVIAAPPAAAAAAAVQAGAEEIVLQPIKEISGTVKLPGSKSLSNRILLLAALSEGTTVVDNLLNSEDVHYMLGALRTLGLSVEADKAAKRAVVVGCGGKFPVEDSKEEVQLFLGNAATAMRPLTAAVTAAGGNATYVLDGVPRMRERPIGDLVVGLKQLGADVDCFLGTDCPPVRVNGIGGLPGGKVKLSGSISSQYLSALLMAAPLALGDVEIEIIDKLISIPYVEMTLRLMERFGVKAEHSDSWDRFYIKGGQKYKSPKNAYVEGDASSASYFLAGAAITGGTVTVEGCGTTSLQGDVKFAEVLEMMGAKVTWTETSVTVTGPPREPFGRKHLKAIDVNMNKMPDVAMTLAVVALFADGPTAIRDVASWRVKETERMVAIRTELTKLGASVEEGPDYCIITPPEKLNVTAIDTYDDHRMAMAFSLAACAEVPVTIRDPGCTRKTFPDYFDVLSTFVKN
T1 sequence (P11043 73-516 G173A): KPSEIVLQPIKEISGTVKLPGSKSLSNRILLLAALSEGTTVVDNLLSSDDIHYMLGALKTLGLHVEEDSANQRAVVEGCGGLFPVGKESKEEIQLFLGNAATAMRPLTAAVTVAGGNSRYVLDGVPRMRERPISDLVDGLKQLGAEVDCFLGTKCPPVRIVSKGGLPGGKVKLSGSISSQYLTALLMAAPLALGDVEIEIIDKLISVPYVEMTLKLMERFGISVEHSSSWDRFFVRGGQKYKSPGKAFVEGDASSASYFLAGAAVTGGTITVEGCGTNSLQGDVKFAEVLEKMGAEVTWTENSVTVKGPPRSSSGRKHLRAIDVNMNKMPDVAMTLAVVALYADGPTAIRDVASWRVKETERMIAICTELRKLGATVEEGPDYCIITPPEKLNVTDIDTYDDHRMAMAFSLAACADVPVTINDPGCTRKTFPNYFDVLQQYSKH

On to `O=C(O)CNCP(=O)(O)O` [glyphosate, N-phosphonomethylglycine], for which, in test [1], the IC50 was 16 mM. Further, in test [2] (1 mM glyphosate, product of pMON9960), the “inhibition of EPSP synthase activity” value is listed as “only slightly inhibited”. Moreover, the “EPSP synthase activity in the presence of glyphosate” value in test [2] (100 mM glyphosate, product of pMON9960) is recorded as “still showing detectable activity”. In test [2] (read-out: inhibition of EPSP synthase activity), the inhibition at 10000 µM turned out to be 25%. For the same compound, the callus growth is recorded as “very little growth of callus” in test [3] (0.25 mM glyphosate) and “no callus growth” in test [3] (0.5 mM glyphosate). Further, in test [4], the “Visual Appearance” value is “growing well; also recorded: healthy and viable”. Besides, the “callus growth on glyphosate” value in test [5] is “capable of growth”. Also, in the test with wild type callus, the effect on callus is “kills”. For the same compound, the viability at 500 µM in test [6] is less than 1%. Also, in the test with E coli 11303 SM-1, the “growth in the presence of glyphosate” value is “could grow rapidly”.
